Measurements from patent US20080274892A1, “Novel Haloalkylsulfonanilide Derivative, Herbicide, and Method of Use Thereof” (priority 2005, published 2008).

How the values were obtained:
false pimpernel [1] = experiment: Test Example 1: herbicidal efficacy on rice paddy weeds pre-emergence; assay type: in vivo, Lindernia pyxidaria; details: 21 days
Description: (§1) A 75 cm^2 plastic pot was filled with soil (clay loam) and planted seeds of bulrush which is a rice paddy weed. After covering the top with 75 cm^3 soil mixed with seeds of false pimpernel, the pot was filled with water so that the soil submerged under 5 cm depth of water. The predetermined effective dosage ([…]) of a formulation containing the compound of the present invention prepared according to Formulation Example 1-4 as an active ingredient was diluted in water and added to the pot water surface dropwise. The pot was kept in a hot house for 21 days and the herbicidal efficacy was investigated. The herbicidal efficacy was evaluated according to the following standard by comparing with untreated control. “-” in the table represents test not done.
(§2) The standard of judgment for herbicidal efficacy (degree of growth inhibition) and phytotoxicity 4 . . . 90%-100% of herbicidal efficacy or phytotoxicity 3 . . . 70%-89% of herbicidal efficacy or phytotoxicity 2 . . . 40%-69% of herbicidal efficacy or phytotoxicity 1 . . . 1%-39% of herbicidal efficacy or phytotoxicity 0 . . . 0% of herbicidal efficacy or phytotoxicity

false pimpernel [2] = experiment: Test Example 2: herbicidal efficacy on rice paddy weeds post-emergence; assay type: in vivo, Lindernia pyxidaria; details: post-emergence, one leaf stage, 21 days after treatment
Description: as §2
(§3) A 75 cm^2 plastic pot was filled with soil (clay loam) and planted seeds of barnyard glass and bulrush which is a rice paddy weed. After covering the top with 75 cm^3 soil mixed with seeds of false pimpernel, the pot was filled with water so that the soil submerged under 5 cm depth of water and kept in a hot house. […] The pot was kept in a hot house for 21 days after the treatment and the herbicidal efficacy was investigated and evaluated according to the standard in Test Example 1 by comparing with the untreated control. “-” in the table represents test not done.

barnyard glass = experiment: as above; assay type: in vivo, Echinochloa crus-galli; details: 21 days after treatment
Description: as §2, §3

[3] = system: paddy rice plant (cultivar: Nihonbare); experiment: Test Example 3: phytotoxicity test for transplanted paddy rice plant; assay type: in vivo; details: 21 days after treatment; for Phytotoxicity to paddy rice: transplanted rice
Description: as §2
A 75 cm^2 plastic pot was filled with soil (clay loam), and water was added so that the soil was submerged under 5 cm depth of water. Two paddy rice plant (cultivar: Nihonbare) at two leaves stage were transplanted at the depth of 1 cm and kept in a hot house. […] The pot was kept in a hot house for 21 days after the treatment and the phytotoxicity was investigated and evaluated according to the standard in Test Example 1 by comparing with the untreated control. “-” in the table represents test not done.

bulrush [4] = experiment: Test Example 2: herbicidal efficacy on rice paddy weeds post-emergence; assay type: in vivo, Scirpus juncoides; details: 21 days after treatment
Description: as §2, §3

bulrush [5] = experiment: Test Example 1: herbicidal efficacy on rice paddy weeds pre-emergence; assay type: in vivo, Scirpus juncoides; details: 21 days
Description: as §1, §2

[6] = dosage 300 g/ha, post-emergence, one leaf stage
[7] = dosage 1000 g/ha, post-emergence, one leaf stage
[8] = dosage 1000 g/ha, treated 5 days after transplantation
[9] = dosage 1000 g/ha active ingredient, post-emergence treatment at one leaf stage, vs untreated control

| Structure (SMILES) | False pimpernel pre (herbicidal efficacy grade) (false pimpernel [1]; dosage 300 g/ha) | False pimpernel post (herbicidal efficacy grade) (false pimpernel [2]; dosage 300 g/ha) | Burnyard grass post (herbicidal efficacy grade) (barnyard glass; [6]) | Phytotoxicity to paddy rice ([3]; dosage 300 g/ha) | Bulrush post (herbicidal efficacy grade) (bulrush [4]; [6]) | Bulrush pre (herbicidal efficacy grade) (bulrush [5]; dosage 300 g/ha) | False pimpernel pre (herbicidal efficacy grade) (false pimpernel [1]; dosage 1000 g/ha) | False pimpernel post (herbicidal efficacy grade) (false pimpernel [2]; dosage 1000 g/ha) | Burnyard grass post (herbicidal efficacy grade) (barnyard glass; [7]) | Phytotoxicity to paddy rice [3, 8] | Bulrush post (herbicidal efficacy grade) (bulrush [4]; [7]) | Bulrush pre (herbicidal efficacy grade) (bulrush [5]; dosage 1000 g/ha) | further results |
| --- | --- | --- | --- | --- | --- | --- | --- | --- | --- | --- | --- | --- | --- |
| O=C1OC(C(F)(F)F)CN1Cc1ccccc1NS(=O)(=O)C(F)(F)F (centres unmarked) [Compound 1-19] | 3 (70%-89% of herbicidal efficacy or phytotoxicity) | 2 (40%-69% of herbicidal efficacy or phytotoxicity) | 2 (40%-69% of herbicidal efficacy or phytotoxicity) | 0 (0% of herbicidal efficacy or phytotoxicity) | 4 (90%-100% of herbicidal efficacy or phytotoxicity) | 4 (90%-100% of herbicidal efficacy or phytotoxicity) |  |  |  |  |  |  |  |
| CC(C)(C)OC(=O)NCC1CN(Cc2ccccc2NS(=O)(=O)C(F)(F)F)C(=O)O1 (racemic) [1-106] | 2 (40%-69% of herbicidal efficacy or phytotoxicity) | 2 (40%-69% of herbicidal efficacy or phytotoxicity) | 0 (0% of herbicidal efficacy or phytotoxicity) | 0 (0% of herbicidal efficacy or phytotoxicity) | 4 (90%-100% of herbicidal efficacy or phytotoxicity) | 4 (90%-100% of herbicidal efficacy or phytotoxicity) |  |  |  |  |  |  |  |
| CCCCC1COC(=O)N1Cc1ccccc1N(C(=O)OCC(C)C)S(=O)(=O)C(F)(F)F (centres unmarked) [Compound 1-12] | 2 (40%-69% of herbicidal efficacy or phytotoxicity) | 2 (40%-69% of herbicidal efficacy or phytotoxicity) | 2 (40%-69% of herbicidal efficacy or phytotoxicity) | 0 (0% of herbicidal efficacy or phytotoxicity) | 4 (90%-100% of herbicidal efficacy or phytotoxicity) | 4 (90%-100% of herbicidal efficacy or phytotoxicity) |  |  |  |  |  |  |  |
| CC(C)COC(=O)N(c1ccccc1CN1C(=O)OCC1C(C)C)S(=O)(=O)C(F)(F)F (centres unmarked) [Compound 1-10] |  |  |  |  |  |  | 4 (90%-100% of herbicidal efficacy or phytotoxicity) | 4 (90%-100% of herbicidal efficacy or phytotoxicity) | 4 (90%-100% of herbicidal efficacy or phytotoxicity) | 1 (1%-39% of herbicidal efficacy or phytotoxicity) | 4 (90%-100% of herbicidal efficacy or phytotoxicity) | 4 (90%-100% of herbicidal efficacy or phytotoxicity) |  |
| CCCC1CN(Cc2ccccc2NS(=O)(=O)C(F)(F)F)C(=O)O1 (centres unmarked) [Compound 1-29] |  |  |  |  |  |  | 4 (90%-100% of herbicidal efficacy or phytotoxicity) | 4 (90%-100% of herbicidal efficacy or phytotoxicity) | 4 (90%-100% of herbicidal efficacy or phytotoxicity) | 2 (40%-69% of herbicidal efficacy or phytotoxicity) | 4 (90%-100% of herbicidal efficacy or phytotoxicity) | 4 (90%-100% of herbicidal efficacy or phytotoxicity) |  |
| CCCCC1COC(=O)N1Cc1ccccc1NS(=O)(=O)C(F)(F)F (centres unmarked) [Compound 1-11] | 2 (40%-69% of herbicidal efficacy or phytotoxicity) | 1 (1%-39% of herbicidal efficacy or phytotoxicity) | 0 (0% of herbicidal efficacy or phytotoxicity) | 0 (0% of herbicidal efficacy or phytotoxicity) | 3 (70%-89% of herbicidal efficacy or phytotoxicity) | 4 (90%-100% of herbicidal efficacy or phytotoxicity) |  |  |  |  |  |  |  |
| CC(C)COC(=O)N(c1ccccc1CN1C(=O)SC(C)C1=O)S(=O)(=O)C(F)(F)F (centres unmarked) [Compound 1-200] |  |  |  |  |  |  | 2 (40%-69% of herbicidal efficacy or phytotoxicity) | 3 (70%-89% of herbicidal efficacy or phytotoxicity) | 1 (1%-39% of herbicidal efficacy or phytotoxicity) | 0 (0% of herbicidal efficacy or phytotoxicity) | 3 (70%-89% of herbicidal efficacy or phytotoxicity) | 4 (90%-100% of herbicidal efficacy or phytotoxicity) |  |
| CC1(C)OC(=O)N(Cc2cc(Cl)ccc2NS(=O)(=O)C(F)(F)F)C1=O [1-211] |  |  |  |  |  |  |  |  | 4 (90%-100% of herbicidal efficacy or phytotoxicity) | 4 (90%-100% of herbicidal efficacy or phytotoxicity) | 4 (90%-100% of herbicidal efficacy or phytotoxicity) | 4 (90%-100% of herbicidal efficacy or phytotoxicity) |  |
| CC1(C)CN(Cc2cccc(O)c2NS(=O)(=O)C(F)(F)F)C(=O)O1 [1-214] |  |  |  |  |  |  |  |  |  |  |  |  | Burnyard grass post (herbicidal efficacy grade) (barnyard glass; [9]): 0 (0% of herbicidal efficacy or phytotoxicity); Phytotoxicity to paddy rice (grade) ([3]; dosage 1000 g/ha active ingredient, treated 5 days after transplantation, vs untreated control): 0 (0% of herbicidal efficacy or phytotoxicity); Bulrush post (herbicidal efficacy grade) (bulrush [4]; [9]): 1 (1%-39% of herbicidal efficacy or phytotoxicity); Bulrush pre (herbicidal efficacy grade) (bulrush [5]; dosage 1000 g/ha active ingredient, vs untreated control): 1 (1%-39% of herbicidal efficacy or phytotoxicity) |
| CC(C)=CC1(C)CN(Cc2ccccc2NS(=O)(=O)C(F)(F)F)C(=O)O1 (centres unmarked) [Compound 1-164] |  |  |  |  |  |  | 4 (90%-100% of herbicidal efficacy or phytotoxicity) | 4 (90%-100% of herbicidal efficacy or phytotoxicity) |  | 1 (1%-39% of herbicidal efficacy or phytotoxicity) | 4 (90%-100% of herbicidal efficacy or phytotoxicity) | 4 (90%-100% of herbicidal efficacy or phytotoxicity) |  |
| CC(C)COC(=O)N(c1ccccc1CN1CC(C)(c2ccccc2)OC1=O)S(=O)(=O)C(F)(F)F (centres unmarked) [Compound 1-141] | 4 (90%-100% of herbicidal efficacy or phytotoxicity) | 4 (90%-100% of herbicidal efficacy or phytotoxicity) |  | 1 (1%-39% of herbicidal efficacy or phytotoxicity) | 4 (90%-100% of herbicidal efficacy or phytotoxicity) | 3 (70%-89% of herbicidal efficacy or phytotoxicity) |  |  |  |  |  |  |  |
| CCCCCCCCCCCCCCCCOC(=O)N(c1ccccc1CN1CC(C)(C)OC1=O)S(=O)(=O)C(F)(F)F [Compound 1-84] | 4 (90%-100% of herbicidal efficacy or phytotoxicity) | 4 (90%-100% of herbicidal efficacy or phytotoxicity) |  | 1 (1%-39% of herbicidal efficacy or phytotoxicity) | 3 (70%-89% of herbicidal efficacy or phytotoxicity) | 4 (90%-100% of herbicidal efficacy or phytotoxicity) |  |  |  |  |  |  |  |
